The subject of series [1] is HCT-116. Put plainly: Cytotoxicity against human HCT116 cells assessed as reduction in cell viability incubated for 72 hrs by MTT assay. The class given is cell-based. The note with it: HCT-116, 72 h. On the technique in general: Tetrazolium dyes change colour on reduction, which living cells bring about.
Series [2] relates to OVCAR. Put plainly: Cytotoxicity against human OVCAR cells assessed as reduction in cell viability incubated for 72 hrs by MTT assay. The format is cell-based.
Series [3] concerns A549. Put plainly: Cytotoxicity against human A549 cells assessed as reduction in cell viability incubated for 72 hrs by MTT assay. The format is cell-based. The note with it: A549, 72 h.
Series [4] concerns MCF7. Put plainly: Cytotoxicity against human MCF7 cells assessed as reduction in cell viability incubated for 72 hrs by MTT assay. The class given is cell-based. Conditions: MCF7, 72 h.
The test system of series [5] is PC-3. Put plainly: Cytotoxicity against human PC3 cells assessed as reduction in cell viability incubated for 72 hrs by MTT assay. The format is cell-based. Conditions: PC-3, 72 h.
The test system of series [6] is HepG2. Put plainly: Cytotoxicity against human HepG2 cells assessed as reduction in cell viability incubated for 72 hrs by MTT assay. The class given is cell-based. The note with it: HepG2, 72 h.
The test system of series [7] is SH-SY5Y. The series is described as follows: Cytotoxicity against human SH-SY5Y cells assessed as reduction in cell viability incubated for 72 hrs by MTT assay. The class given is cell-based.
For series [8], the system named is HCT-116. The series is described as follows: Cytotoxicity against human HCT116 cells assessed as reduction in cell viability incubated for 24 to 72 hrs by MTT assay. The format is cell-based.
Series [9] relates to OVCAR. The series is described as follows: Cytotoxicity against human OVCAR cells assessed as reduction in cell viability incubated for 24 to 72 hrs by MTT assay. The class given is ADME, cell-based.
Series [10] concerns A549. Put plainly: Cytotoxicity against human A549 cells assessed as reduction in cell viability incubated for 24 to 72 hrs by MTT assay. The class given is cell-based.
The test system of series [11] is MCF7. Put plainly: Cytotoxicity against human MCF7 cells assessed as reduction in cell viability incubated for 24 to 72 hrs by MTT assay. The format is cell-based.
The test system of series [12] is PC-3. The series is described as follows: Cytotoxicity against human PC3 cells assessed as reduction in cell viability incubated for 24 to 72 hrs by MTT assay. The class given is cell-based.
Series [13] concerns HepG2. The series is described as follows: Cytotoxicity against human HepG2 cells assessed as reduction in cell viability incubated for 24 to 72 hrs by MTT assay. The format is cell-based.
For series [14], the system named is SH-SY5Y. The series is described as follows: Cytotoxicity against human SH-SY5Y cells assessed as reduction in cell viability incubated for 24 to 72 hrs by MTT assay. The format is cell-based.
Series [15] has as its system HepG2. The series is described as follows: Inhibition of Wnt/beta-catenin signaling pathway in human HepG2 cells assessed as reduction in TCF-dependent beta-catenin mediated transcription incubated for 24 hrs by Topflash reporter assay. The format is cell-based. (In general: In a reporter assay the amount or activity of a reporter protein is the signal.)
Series [16] deals with HepG2. Put plainly: Inhibition of Wnt/beta-catenin signaling pathway in human HepG2 cells assessed as reduction in TCF-dependent beta-catenin mediated transcription at 20 to 40 uM incubated for 24 hrs by Topflash reporter assay. The format is cell-based.
For series [17], the system named is HepG2. Put plainly: Inhibition of Wnt/beta-catenin signaling pathway in human HepG2 cells assessed as reduction in TCF-dependent beta-catenin mediated transcription at 5 to 40 uM incubated for 24 hrs by Topflash reporter assay. The format is cell-based.

pIC50: −log10 of the molar value. Calls of active or inactive are those of the source. The calls are words filed in the database; no cut-off is given here.

As usually defined, the pIC50 is the negative decadic logarithm of the IC50, by convention in mol/L. For the compound `C=C(C)[C@@H]1CC[C@H]2O[C@H]2[C@H]1c1c(O)cc(CCCCC)cc1O`, the pIC50 in the series with HCT-116 [1] was 4.82; with OVCAR [2], 4.25; with A549 [3], 4.34; in the series on MCF7 [4], 4.33; with PC-3 [5] it was 4.75; in the series on HepG2 [6] it was 4.28. Further, in the series with SH-SY5Y [7], the negative logarithm of the IC50 (pIC50) is 4.29. In addition, the Activity result in the series on HCT-116 [8], in the series on OVCAR [9], in the series on A549 [10], in the series with MCF7 [11], in the series on PC-3 [12] and with HepG2 [13] was “Dose-dependent effect” in each case. The Activity entry with SH-SY5Y [14] is “Dose-dependent effect”. Further, the inhibition entry in the series with HepG2 [15] is “Dose-dependent effect”.
As for `CCCCCc1cc(O)c2c(c1)OC(C)(CCC=C(C)C)C=C2` (configuration not stated) [CANNABICHROMENE], the pIC50 is 4.22 in the series on HCT-116 [1]; 4.19 in the series with OVCAR [2]; 4.22 with A549 [3]; 4.40 in the series with MCF7 [4]; 4.40 with PC-3 [5]; 4.22 in the series with HepG2 [6]. Further, in the series on SH-SY5Y [7], the negative logarithm of the IC50 (pIC50) is 4.11. The Activity result in the series on HCT-116 [8], with OVCAR [9], in the series on A549 [10], in the series with MCF7 [11], in the series with PC-3 [12] and in the series with HepG2 [13] was “Dose-dependent effect” in each case. Moreover, the Activity result with SH-SY5Y [14] is recorded as “Dose-dependent effect”. The inhibition result in the series on HepG2 [16] was “inactive”.
On to `C=C(C)[C@@H]1CCC(C)=C[C@H]1c1c(O)cc(CCCCC)cc1O` [CANNABIDIOL], for which the pIC50 with HCT-116 [1] was 4.74; in the series on OVCAR [2] it was 4.30; with A549 [3], 4.40; with MCF7 [4], 4.26; in the series with PC-3 [5] it was 4.92; in the series on HepG2 [6], 4.37. Moreover, the negative logarithm of the IC50 (pIC50) in the series with SH-SY5Y [7] is 4.32. Moreover, the Activity result with HCT-116 [8], in the series with OVCAR [9], in the series with A549 [10], in the series with MCF7 [11], in the series on PC-3 [12] and with HepG2 [13] was “Dose-dependent effect” each time. Moreover, in the series on SH-SY5Y [14], the Activity result is listed as “Dose-dependent effect”. Besides, the inhibition entry with HepG2 [15] was “Dose-dependent effect”.
Take `C=C(C)[C@@H]1CCC(C)=C[C@H]1c1c(O)cc(CCC)cc1O` [CANNABIDIVARIN]: the pIC50 in the series on HCT-116 [1] is 4.89; in the series with OVCAR [2], 4.24; with A549 [3] it was 4.41; in the series with MCF7 [4] it was 4.28; with PC-3 [5], 4.36; in the series on HepG2 [6] it was 4.19. Moreover, the negative logarithm of the IC50 (pIC50) in the series with SH-SY5Y [7] was 4.26. Also, the Activity result with HCT-116 [8], in the series with OVCAR [9], with A549 [10], in the series with MCF7 [11], in the series on PC-3 [12] and with HepG2 [13] was “Dose-dependent effect” in each case. For the same compound, the Activity result in the series with SH-SY5Y [14] was “Dose-dependent effect”. The inhibition result with HepG2 [15] is “Dose-dependent effect”.
With `CCCCCc1cc(O)c2c(c1)OC(C)(C)c1ccc(C)cc1-2` [CANNABINOL], the pIC50 is 4.10 with HCT-116 [1]; 4.11 in the series on OVCAR [2]; 4.04 in the series on A549 [3]; 4.09 with MCF7 [4]; 4.11 in the series on PC-3 [5]; 4.13 with HepG2 [6]. In the series with SH-SY5Y [7], the pIC50 was 4.01. The Activity result in the series with HCT-116 [8], in the series on OVCAR [9], with A549 [10], in the series on MCF7 [11], in the series on PC-3 [12] and in the series with HepG2 [13] was “Dose-dependent effect” throughout. In the series on SH-SY5Y [14], the Activity entry is on record as “Dose-dependent effect”. The inhibition entry with HepG2 [17] is “inactive”.
As to `CCCCCc1cc(O)c2c(c1)OC(C)(C)[C@@H]1CCC(C)=C[C@@H]21` [DRONABINOL], the pIC50 with HCT-116 [1] was 4.38; in the series with OVCAR [2] it was 4.20; in the series with A549 [3] it was 4.35; in the series on MCF7 [4] it was 4.24; with PC-3 [5], 4.19; in the series on HepG2 [6], 4.23. The negative-log IC50 (pIC50) with SH-SY5Y [7] was 4.30. Also, the Activity entry in the series with HCT-116 [8], in the series with OVCAR [9], in the series with A549 [10], in the series with MCF7 [11], in the series with PC-3 [12] and in the series with HepG2 [13] was “Dose-dependent effect” in each case. In the series with SH-SY5Y [14], the Activity entry is “Dose-dependent effect”. In the series on HepG2 [16], the inhibition entry is “inactive”.
In the case of `CC[C@@H](C(=O)[C@@H](C)[C@@H](O)[C@H](C)[C@@H]1O[C@@H]([C@@H](CC)C(=O)O)CC[C@@H]1C)[C@H]1O[C@]2(C=C[C@@H](O)[C@]3(CC[C@@](C)([C@H]4CC[C@](O)(CC)[C@H](C)O4)O3)O2)[C@H](C)C[C@@H]1C` [SALINOMYCIN], in the series on HepG2 [6], the pIC50 was 4.61. For the same compound, the inhibition entry in the series on HepG2 [15] is “Dose-dependent effect”.
For `CCCc1cc(O)c2c(c1)OC(C)(C)[C@@H]1CCC(C)=C[C@@H]21` [TETRAHYDROCANNABIVARIN], the pIC50 was 4.08 with HCT-116 [1]; 4.12 in the series on OVCAR [2]; 4.05 in the series with A549 [3]; 4.10 with MCF7 [4]; 4.10 in the series on PC-3 [5]; 4.12 in the series on HepG2 [6]. Moreover, in the series with SH-SY5Y [7], the negative logarithm of the IC50 (pIC50) was 4.02. Further, the Activity entry with HCT-116 [8], in the series with OVCAR [9], in the series on A549 [10], in the series on MCF7 [11], in the series with PC-3 [12] and in the series on HepG2 [13] was “Dose-dependent effect” in each case. Further, the Activity result in the series on SH-SY5Y [14] is “Dose-dependent effect”. The inhibition result in the series with HepG2 [16] was “inactive”.
